Assay results taken from patent US5491220A, “Surface loop structural analogues of fibroblast growth factors” (Yeda Research and Development Co., Ltd., priority 1994, dated 1996).

Test system: neovascularization
Assay: In vivo angiogenesis, rabbit ear chamber model
Procedure: In an in vivo model of angiogenesis, FGF-2LI is evaluated using the rabbit ear chamber system modified and improved by Howden, G. F., and Silver, I. A., (Int. Endodontic J. 13: 3-16 (1980)), observing the growth factor-induced neovascularization, or its inhibition, by modified growth factors or other reagents.
Rabbits are sedated using 50-70 mg/kg ketamine and 10 mg/kg xylozine administered intramuscularly. The ears are shaved with an electric hair clipper and cleaned with water, followed by Betadine®. To minimize the risk of infection, the rabbits are given 20,000 units/kg benzathine penicillin intramuscularly prior to insertion of the ear chambers. The chamber is inserted into an approximately 0.75 cm area which is not crossed by any major vessels. During the course of the experiments, observations or any minor handling of ear chambers of the animals is done by sedating the animal using the intramuscular administration of a combination of Butorphanol® and acepromazine at levels of 1 mg/kg each. FGF-2 or FGF-2LI bound to heparin-Sepharose® beads in a controlled-release alginate capsule is contained in one of the ear chambers and the other is used as a control containing only the heparin-Sepharose® alginate capsule vehicle. Thus, the effect of the growth factors and the controlled-release capsule alone can be observed simultaneously in the same animal. […] The animals are kept for 4 to 6 weeks and neovascularization is observed visually and recorded photographically at weekly intervals.
The criteria for evaluation of the degree of neovascularization using this procedure is set out below.

FGF-2LI: human FGF-2 with loop residues 118-122 replaced by Ala-Gln-Phe-Pro-Asn from human interleukin-1β (SEQ ID NO 15)
Angiogenesis at 400 ng/chamber (400 ng/chamber): greatly stimulates formation of capillaries and larger vessels | Concentration range over which stimulatory activity is observed (rabbit ear chamber): 0.1-400 ng/chamber | Potential to induce angiogenesis (neovascularization) (rabbit ear chamber, controlled-release alginate capsule): superior to FGF-2 | Vessel formation in the chamber (rabbit ear chamber, versus control chambers): stimulate large vessel formation
